The text below walks through data of patent US5298619A, “1,4-dihydropyridine compounds with PAF-antagonistic activity” (Alter, S.A., priority 1991, dated 1994).

Bounds are passed on as bounds.

Usually IC50 stands for the point on the concentration scale where inhibition reaches its midpoint. A lower IC50 goes with greater potency.

The subject of the first experiment is bronchoconstriction.
Assay: not given
The settings on record: doses times lower than histamine; cited from earlier work.
As for `CCCCCCCCCCCCCCCCOCC(COP(=O)([O-])OCC[N+](C)(C)C)OC(C)=O` (centres unmarked) [PAF-"acether", 1-O-hexadecyl/octodecyl-2-acetyl-sn-glycero-3-phosphocoline], the “doses inducing bronchoconstriction, relative to histamine” value is reported as 100 times lower.

The subject of a further experiment is aggregation induced by 1-PAF in rabbit platelets. Briefly: Effect on the aggregation induced by 1-PAF in rabbit platelets (washed platelets). Type of experiment: cell-based, rabbit (male, albino, New Zealand). The note with it: Oryctolagus cuniculus, Platelet, 37° C., 5 min preincubation, 1-PAF=1.92 nM, compounds 10 to 0.1 micM, mean of three experiments in duplicate. The procedure: STUDIES WITH WASHED PLATELETS: Aggregation
The suspensions of washed platelets were obtained from rabbit's blood (male, albino, New Zealand), anticoagulated with a solution of citric acid citrate/sodium dextrose in the ratio 1:6 (v:v).
The platelet rich plasma (PRP) was obtained by centrifuging blood samples at 100×g for 10 minutes and the platelets by centrifuging the PRP at 1,800×g for 15 minutes at 4° C. The pellet obtained in this way was washed twice with Tyrode tampon containing citric acid, PGE and aspirase, pH 6.5. The platelets so-washed were finally resuspended in Hepes-Tyrode tampon, pH 7.35 supplemented with bovine seric albumin at 0.35%; Ca++ 2 mM.
The final platelet concentration was adjusted to 300,000 platelets/mic-1. The aggregation was measured turbidimetrically using a lumiaggregometre (Chrono-Log.Co; Haventon, Pa., USA) at 37° C. under stirring at 1,100 r.p.m. The study was made in aliquots of preincubated PRP, with the compounds under study, for 5 minutes. The concentration of the antagonists was, in all cases, between 10 micM and 0.1 micM. The aggregation was induced by adding L-PAF diluted in 5 micl of Hepes/albumin tampon, the final concentration being 1.9×0,000000001. The IC50 for each compound was evaluated graphically from the dose-response curves.
The data reflected is the mean of three experiments performed in duplicate. Concentration of 1-PAF=1.92 nM.
The concentrations of compounds, in all cases, were between 10 and 0.1 micM .
For `CCOC(=O)C1=C(C)NC(C)=C(C(=O)OCCCSc2ccccc2)C1C` (centres unmarked) [Example 166], the IC50 is 2600 nM.
Same read-out and setting: with `CCC1C(C(=O)OC)=C(C)NC(C)=C1C(=O)OCCCSc1ccc(C)cc1` (centres unmarked) [Example 172] the figure was 190 nM; with `CCC1C(C(=O)OC)=C(C)NC(C)=C1C(=O)OCCCSc1ccc(Cl)cc1` (centres unmarked) [Example 164, 3-(4-chlorophenylthio) propyl 2,6-dimethyl-4-ethyl-5-methoxycarbonyl-1,4-dihydropyridine-3-carboxylate], 320 nM.
`COC(=O)C1=C(C)NC(C)=C(C(=O)OCCOc2cccc3ccccc23)C1C` (centres unmarked) [Example 113] registered an IC50 of 3000 nM.
As for `COC(=O)C1=C(C)NC(C)=C(C(=O)OCCCOc2ccc(C)cc2)C1C` (centres unmarked) [Example 48], the IC50 amounted to 4000 nM.
Same read-out and setting: in the case of `COC(=O)C1=C(C)NC(C)=C(C(=O)OCCOc2ccc(Cl)cc2)C1C` (centres unmarked) [Example 131] it was 10000 nM; in that of `COC(=O)C1=C(C)NC(C)=C(C(=O)OCCS(=O)(=O)c2ccc(C)cc2)C1C` (centres unmarked) [Example 2, 2-(4-methylphenylsulphonyl) ethyl 5-methoxycarbonyl-2,4,6-trimethyl-1,4-dihydropyridine-3-carboxylate], 1100 nM.
As for `COC(=O)C1=C(C)NC(C)=C(C(=O)OCCCSc2ccccc2)C1C` (centres unmarked) [Example 163, 3-(phenylthio) propyl 5-methoxycarbonyl-2,4,6-trimethyl-1,4-dihydropyridine-3-carboxylate], the 50% inhibitory concentration (IC50) was found to be 410 nM.
`COC(=O)C1=C(C)NC(C)=C(C(=O)OCCCOc2ccccc2)C1C` (centres unmarked) [Example 6] displayed an IC50 of 3000 nM.
Still for that read-out and setting: in the case of `COC(=O)C1=C(C)NC(C)=C(C(=O)OCCCOc2cccc3ccccc23)C1C` (centres unmarked) [Example 154] it was 1100 nM; in that of `CCOC(=O)C1=C(C)NC(C)=C(C(=O)OCCCOc2ccc(-c3ccccc3)cc2)C1C` (centres unmarked) [Example 66], 2400 nM; in that of `COC(=O)C1=C(C)NC(C)=C(C(=O)OCCOc2ccc([N+](=O)[O-])cc2)C1C` (centres unmarked) [Example 110], 4300 nM.
`COC(=O)C1=C(C)NC(C)=C(C(=O)OCCCSc2ccc(Cl)cc2)C1C` (centres unmarked) [Example 1, 3-(4-chlorophenylthio) propyl 5-methoxycarbonyl-2,4,6-trimethyl-1,4-dihydropyridine-3-carboxylate] yielded an IC50 of 340 nM.
As to `COC(=O)C1=C(C)NC(C)=C(C(=O)OCCCOc2ccc(-c3ccccc3)cc2)C1C` (centres unmarked) [Example 3, 3-(4-phenylphenoxy) propyl 5-methoxycarbonyl-2,4,6-trimethyl-1,4-dihydropyridine-3-carboxylate], the IC50 stood at 240 nM.
On the same count and under the same terms, in the case of `CCOC(=O)C1=C(C)NC(C)=C(C(=O)OCCCSc2ccc(Cl)cc2)C1CC` (centres unmarked) [Example 165, 3-(4-chlorophenylthio) propyl 2,6-dimethyl-4-ethyl-5-ethoxycarbonyl-1,4-dihydropyridine-3-carboxylate] it was 2500 nM; in that of `COC(=O)C1=C(C)NC(C)=C(C(=O)OCCOc2cccc(N(C)C)c2)C1C` (centres unmarked) [Example 135], 2800 nM.
Compound `COC(=O)C1=C(C)NC(C)=C(C(=O)OCCOc2ccc(Oc3ccccc3)cc2)C1C` (centres unmarked) [Example 140] yielded an IC50 of 2000 nM.
Still for that read-out and setting: with `COC(=O)C1=C(C)NC(C)=C(C(=O)OCCCSc2ccc(NC(C)=O)cc2)C1C` (centres unmarked) [Example 30] the figure was 3100 nM; with `COC(=O)C1=C(C)NC(C)=C(C(=O)OCCCOc2ccc(Oc3ccccc3)cc2)C1C` (centres unmarked) [Example 139], 700 nM; with `COC(=O)C1=C(C)NC(C)=C(C(=O)OCCCS(=O)(=O)c2ccc(C)cc2)C1C` (centres unmarked) [Example 52], 2700 nM.
The compound `COC(=O)C1=C(C)NC(C)=C(C(=O)OCCCOc2ccc(OC)cc2)C1C` (centres unmarked) [Example 61] gave an IC50 of 2000 nM.
Still for that read-out and setting: in the case of `COC(=O)C1=C(C)NC(C)=C(C(=O)OCCCSc2ccc([N+](=O)[O-])cc2)C1C` (centres unmarked) [Example 76] it was 2800 nM.
On the same count and under the same terms, with `CCOC(=O)C1=C(C)NC(C)=C(C(=O)OCCS(=O)(=O)c2ccccc2)C1C` (centres unmarked) [Example 74] the figure was 2800 nM; with `COC(=O)C1=C(C)NC(C)=C(C(=O)OCCCOc2ccc(Cl)c(Cl)c2)C1C` (centres unmarked) [Example 41], 2700 nM; with `COC(=O)C1=C(C)NC(C)=C(C(=O)OCCS(=O)(=O)c2ccccc2)C1C` (centres unmarked) [Example 5, 2-(phenylsulphonyl) ethyl 5-methoxycarbonyl-2,4,6-trimethyl-1,4-dihydropyridine-3-carboxylate], 1300 nM.
On the same count and under the same terms, in the case of `COC(=O)C1=C(C)NC(C)=C(C(=O)OCCOc2ccc(OC)cc2)C1C` (centres unmarked) [Example 62] it was 10000 nM.
`CCOC(=O)C1=C(C)NC(C)=C(C(=O)OCCCSc2ccc(Cl)c(Cl)c2)C1C` (centres unmarked) [Example 46]: the IC50 was determined as 1400 nM.
On the same count and under the same terms, in the case of `CCOC(=O)C1=C(C)NC(C)=C(C(=O)OCCCOc2ccc3ccccc3c2)C1C` (centres unmarked) [Example 152, 3-(2-naphthyloxy) propyl 5-ethoxycarbonyl-2,4,6-trimethyl-1,4-dihydropyridine-3-carboxylate] it was 3000 nM; in that of `COC(=O)C1=C(C)NC(C)=C(C(=O)OCCCSc2ccc(C)cc2)C1C` (centres unmarked) [Example 4, 3-(4-methylphenylthio) propyl 5-methoxycarbonyl-2,4,6-trimethyl-1,4-dihydropyridine-3-carboxylate], 850 nM.
In turn, `COC(=O)C1=C(C)NC(C)=C(C(=O)OCCCS(=O)(=O)c2ccccc2)C1C` (centres unmarked) [Example 13] had an IC50 of 2300 nM.
Take `COC(=O)C1=C(C)NC(C)=C(C(=O)OCCCSc2ccc(Cl)c(Cl)c2)C1C` (centres unmarked) [Example 45]: half-maximal inhibition (IC50) was put at 150 nM.
In the case of `CCOC(=O)C1=C(C)NC(C)=C(C(=O)OCCCOc2cccc(N(C)C)c2)C1C` (centres unmarked) [Example 133], the IC50 stood at 2400 nM.
Turning to `COC(=O)C1=C(C)NC(C)=C(C(=O)OCCOc2ccc(-c3ccccc3)cc2)C1C` (centres unmarked) [Example 64], the IC50 stood at 2800 nM.
Same read-out and setting: with `CCOC(=O)C1=C(C)NC(C)=C(C(=O)OCCCSc2ccc(Cl)cc2)C1C` (centres unmarked) [Example 82] the figure was 2800 nM; with `COC(=O)C1=C(C)NC(C)=C(C(=O)OCCCSc2ccc3ccccc3c2)C1C` (centres unmarked) [Example 167], 400 nM.

The test system of the next experiment is PAF.
Assay: not given
The note with it: background statement; cited from earlier work.
In the case of `COc1ccc([C@@H]2Sc3ccccc3N(CCN(C)C)C(=O)[C@@H]2OC(C)=O)cc1` [Diltiazem], the PAF antagonistic properties entry is reported as “present PAF antagonistic properties”.
Consider `COc1ccc(CCN(C)CCCC(C#N)(c2cc(OC)c(OC)c(OC)c2)C(C)C)cc1OC` (centres unmarked) [Gallopamil], for which the PAF antagonistic properties result is given as “present PAF antagonistic properties”.
On to `COC(=O)C1=C(C)NC(C)=C(C(=O)OC)C1c1ccccc1[N+](=O)[O-]` [Nifedipina], for which the PAF antagonistic properties result is reported as “only show a very weak activity”.

The experiment is the same for the next values; noted with them: fold higher than those inhibiting calcium flow in other cells; cited from earlier work.
Turning to `COC(=O)C1=C(C)NC(C)=C(C(=O)OC)C1c1ccccc1[N+](=O)[O-]` [Nifedipina], the “concentrations needed to obtain an effect, relative to those inhibiting calcium flow in other cells” value is 1,000,000.

Staying with this experiment, now noted: times greater than the specific antagonists of the PAF-"acether"; cited from earlier work.
For `COC(=O)C1=C(C)NC(C)=C(C(=O)OC)C1c1ccccc1[N+](=O)[O-]` [Nifedipina], the “concentrations needed to obtain an effect, relative to the specific antagonists of the PAF-"acether"” value is ≥ 1,000 times.
